Laboratory results as given in article PMC4494852, “Microwave-assisted preparation, structural characterization, lipophilicity, and anti-cancer assay of some hydroxycoumarin derivatives” (Monatshefte Fur Chemie, 2014).

Assays:
[1] = Lipophilicity by reversed-phase TLC on RP-18 WF254s plates with standardization; conditions: for φ 0 (intercept of the trend line with abscissa axis): molar fraction for which lipophilicity equals 0
[2] = system: human prostate cancer cells DU145; assay: Cytotoxicity assay (PrestoBlue, resazurin); assay type: cell-based; conditions: 10 and 100 μM, 48 h
Description: (§1) Synthesized substances were dissolved in DMSO (Sigma-Aldrich) to obtain 20 mM stock solutions and kept in 4 °C prior to use.
(§2) The human prostate cancer cells DU145 and mouse melanoma cells B16F10 were maintained in humidified incubator containing 5 % CO2 at 37 °C. DU145 cells were cultured in RPMI medium and B16F10 were cultured in DMEM medium. The media were supplemented with 10 % of fetal calf serum (FCS) and 1 % of antibiotic antimycotic (Sigma). Cells were passaged every 2–3 days. All cell lines were obtained from ATCC (The Global Bioresource Center).
(§3) PrestoBlue (test based on resazurin) was used for analysis cytotoxicity/cytostatic effects. DU145 and B16F10 cells were seeded on 96-well plate (10 × 10^3 cells per well). Examined substances were added to culture after overnight cell incubation. Two concentrations of substances (10 and 100 μM) were used. Control cells and control cells with solvent (DMSO) were applied. After 48 h PrestoBlue test was performed.

[3] = system: mouse melanoma cells B16F10; assay: Cytotoxicity assay (PrestoBlue, resazurin); assay type: cell-based; conditions: B16-F10 (melanoma), 10 and 100 μM, 48 h
Description: as §1, §2, §3

[4] = known logP of standards; cited from earlier work

SMILES	S (slope of the trend line RM vs φ) ([1]; acetonitrile/water)	φ 0 (intercept of the trend line with abscissa axis) ([1]; acetonitrile/water)	S (slope of the trend line RM vs φ) ([1]; dioxane/water)	φ 0 (intercept of the trend line with abscissa axis) ([1]; dioxane/water)	S (slope of the trend line RM vs φ) ([1]; isopropanol/water)	φ 0 (intercept of the trend line with abscissa axis) ([1]; isopropanol/water)	S (slope of the trend line RM vs φ) ([1]; methanol/water)	φ 0 (intercept of the trend line with abscissa axis) ([1]; methanol/water)	cytotoxicity in primary screen [2]	cytotoxicity in primary screen [3]	LogP value [4]	melting point	R M0 (lipophilicity extrapolated to 100 % water) ([1]; acetonitrile/water)	R M0 (lipophilicity extrapolated to 100 % water) ([1]; dioxane/water)	R M0 (lipophilicity extrapolated to 100 % water) ([1]; isopropanol/water)	R M0 (lipophilicity extrapolated to 100 % water) ([1]; methanol/water)
CC(=O)c1c(C)cc2oc(=O)cc(C)c2c1O [Compound 3, 6-acetyl-5-hydroxy-4,7-dimethylcoumarin]	3.706	0.519	4.1018	0.55	3.15	0.479	3.2113	0.754	slightly active	slightly active						
CC(=O)Oc1cc(C)cc2oc(=O)cc(C)c12 [Compound 2a, 5-acetoxy-4,7-dimethylcoumarin]	3.6418	0.481	3.2936	0.474	3.8312	0.424	2.5335	0.642								
c1ccc(Cc2ccccc2)cc1 [Diphenylmethane, diphenylmethane, reference compound]	5.2957		5.0853		6.2485		4.067				4.14					
c1ccc(Nc2ccccc2)cc1 [Diphenylamine, diphenylamine, reference compound]	4.1309		3.8375		4.6873		2.9469									
N#CCOc1cc(=O)oc2ccccc12 [Compound 4, 4-(cyanomethoxy)chromen-2-one]	2.8179	0.438	2.5467	0.452	2.2371	0.401	2.2036	0.607				204 °C				
CC(=O)c1cc2c(C)cc(=O)oc2cc1O [Compound 11, 6-Acetyl-7-hydroxy-4-methylcoumarin]	2.9356	0.425	2.5162	0.409	2.8074	0.362	1.8855	0.526								
O=c1ccc2ccc(O)cc2o1 [Compound 7, umbelliferone]	2.0876	0.346	1.8746	0.356	1.6695	0.309	1.9022	0.506					0.7232	0.6676	0.5162	0.9623
Cc1cc(=O)oc2cc(O)ccc12 [Compound 8, 7-hydroxy-4-methylcoumarin]	2.5539	0.382	2.2314	0.409	2.0405	0.372	2.0525	0.567								
CC(=O)c1c(C)cc2oc(=O)cc(C)c2c1OCC#N [Compound 6, 6-acetyl-5-(cyanomethoxy)-4,7-dimethylchromen-2-one]	3.7596	0.517	3.2502	0.501	3.2079	0.383	2.3247	0.577				283 to 284 °C				
Cc1cc(OCC#N)c2c(C)cc(=O)oc2c1 [Compound 5, 5-(cyanomethoxy)-4,7-dimethylchromen-2-one]	3.3589	0.499	3.2254	0.498	2.3947	0.434	2.677	0.669				214 to 216 °C				
CC(=O)Oc1ccc2c(C)cc(=O)oc2c1 [Compound 10, 7-Acetoxy-4-methylcoumarin]	3.506	0.526	3.3341	0.518	3.436	0.448	2.3174	0.680								
Cc1cc(O)c2c(C)cc(=O)oc2c1 [Compound 2, 5-hydroxy-4,7-dimethylcoumarin]	3.2466	0.437	3.3439	0.483	2.8574	0.445	2.746	0.675	slightly active	slightly active						
Nc1ccc(Cl)c(Cl)c1 [3,4-Dichloroaniline, 3,4-dichloroaniline, reference compound]	3.2165		3.3499		4.4484		3.2073				2.69		1.7807	1.9357	2.149	2.1151
O=C1Nc2ccccc2C1=O [Isatine, isatine, reference compound]	2.0278		1.2132		2.0065		1.4786				0.83		0.7435	0.3418	0.5885	0.6009
O=C(c1ccccc1)c1ccccc1 [Benzophenone, benzophenone, reference compound]	4.1335		3.6381		4.4575		3.2945									
Nc1ccc(Cl)cc1Cl [2,4-Dichloroaniline, 2,4-dichloroaniline, reference compound]	3.3029		3.3036		4.2876		2.7739				2.91		1.8609	2.0135	2.1269	1.8895
CC(=O)Nc1ccc(Cl)c(Cl)c1 [3,4-Dichloroacetanilide, reference compound]	3.5551		3.0847		4.1116		2.4827				2.96					
CC(=O)c1c(O)ccc2c(C)cc(=O)oc12 [Compound 9, 8-Acetyl-7-hydroxy-4-methylcoumarin]	3.0614	0.464	3.2472	0.508	2.6277	0.446	2.5967	0.697								
O=[N+]([O-])c1ccccc1O [2-Nitrophenol, 2-nitrophenol, reference compound]	2.5429		2.2497		2.9639		1.9676						1.1246	1.0657	1.2375	1.0469
